Series [1] deals with opportunistic microbial infections. Put plainly: opportunistic microbial infections in canines treated with antimetabolites for lymphoma. Type of series: in vivo. The text has this:
There is a wide commercial need for inexpensive small molecular weight immunoenhancing drugs to enhance the immune response of individuals treated with antimetabolite anti-cancer drugs, which are immunosuppressive. We are using as the preclinical prototype pet canines treated for lymphoma, one of the most common cancers of dogs as well as humans.

A short description of series [2]: estimated/extrapolated EGCg plasma concentration after oral daily dose. Type of series: in vivo, dogs. The protocol: Previous reports indicate in vivo therapeutic activity at a plasma concentration of 1 to 10 μM/L (Lambert & Yang, 2003). Swezey et. al (Swezey et al., 2003) studied the absorption, tissue distribution and elimination of 4-[^3H]-epigallocatechin gallate in beagle dogs and estimated that approximately 20% of the oral dose appears in plasma after one hour and a half life of approximately 8 h. Considering an underestimation of this value to be 50 μg/ml and the molecular weight of EGCg of […] a daily dose of 250 mg/kg/day would result in a plasma concentration of approximately 100 μM/L. The doses proposed herein would result in an extrapolated value of more than […] in plasma.

Series [3] relates to doxorubicin resistance tumors. The note with it: animal model; cited from earlier work.
For series [4] the following is noted: beagle dogs, cited from earlier work.

The values that follow come from US20070082073A1, “Catechin Adjuvants” (UNIVERSITY OF SOUTH FLORIDA, priority 2005, published 2007).

The structures appear in SMILES notation.

Consider `COc1cccc2c1C(=O)c1c(O)c3c(c(O)c1C2=O)C[C@@](O)(C(=O)CO)C[C@@H]3O[C@H]1C[C@H](N)[C@H](O)[C@H](C)O1` [adriamycin], for which, in series [1], the “incidence of opportunistic microbial infections” value is “increased incidence of opportunistic microbial infections”.
In the case of `O=C(O[C@@H]1Cc2c(O)cc(O)cc2O[C@@H]1c1cc(O)c(O)c(O)c1)c1cc(O)c(O)c(O)c1` [EGCg, epigallocatechin gallate], in series [2] (daily dose of 250 mg/kg/day), the plasma concentration result is given as “approximately 100 μM/L” and the “plasma value, considered an underestimation” value is 50 µg/mL. Further, the “extrapolated value in plasma” value in series [2] (the doses proposed herein (6-60 mg/kg/day EGCg, oral)) is on record as “more than 11 M/L”. The “effect on doxorubicin resistance tumors” value in series [3] is “revert doxorubicin resistance tumors”.
As for `[3H]C1c2c(O)cc(O)cc2OC(c2cc(O)c(O)c(O)c2)C1OC(=O)c1cc(O)c(O)c(O)c1` (stereo not shown) [4-[^3H]-epigallocatechin gallate], the “oral dose that appears in plasma” value in series [4] (after one hour) is recorded as “approximately 20%”. Further, the half life result in series [4] (oral dose) is given as “approximately 8 h”.
